{"source": "patent US12458630B2", "about": "“Combination therapy for cancer” (The Regents of the University of California, priority 2020, dated 2025)", "test_system": "KC6141 cells", "test": "TMR-DEX macropinosome uptake assay", "assay_type": "cell-based, mouse", "conditions": "WT and IKKα-KD KC6141 cells", "method": "Cell imaging. Immunostaining was performed as described^44. Cells were cultured on coverslips and fixed in 4% PFA for 10 min at room temperature. After washing twice in PBS, cells were incubated in PBS containing 10% FBS to block nonspecific sites of antibody adsorption. The cells were then incubated with the appropriate primary antibodies (diluted 1:100) and secondary antibodies (diluted 1:500) in PBS containing 10% FBS with or without 0.1% saponin. For cell macropinosome visualization, 24 hrs after seeding, the cells were serum starved for 18 hrs. Macropinosomes were marked using a high-molecular-mass (70 KD) TMR-Dextran (Invitrogen)-uptake assay, wherein TMR-DEX was added to serum-free medium at a final concentration of 1 mg/ml for 30 min at 37° C. At the end of the incubation period, the cells were rinsed five times in cold PBS and immediately fixed in 4% PFA. For tissue macropinosome visualization^45, fresh pancreata were cut into pieces with an approximate 5-mm cuboidal shape. […]\nQuantification and statistics. To quantify the number of LC3 puncta, a total of 30 cells were recorded and analyzed using the LAS X measurement program on the TCS SPE Leica. Macropinosomes were quantified by using the ‘Analyze Particles’ feature in ImageJ (National Institutes of Health). […]", "data": [{"molecule": "CCN(c1nc(N)c(C(=O)N=C(N)N)nc1Cl)C(C)C", "note": "[EIPA, 5-(N-ethyl-N-isopropyl) amiloride]", "values": [{"measurement": "MP (macropinosomes)", "value": "inhibited MP"}]}]}
